For six compounds, IC50 and Ki results are on record in PMC9072656, “Inhibition of Human Sulfotransferases by Phthalate Monoesters” (Frontiers in Endocrinology, 2022).

The term IC50 denotes the concentration needed to halve the response being measured. What is called Ki is a measure of affinity in units of concentration, obtained from inhibition or displacement. A lower Ki goes with tighter binding.

Assay type in all cases: biochemical
Assay [1] addresses T1, SULT1B1 (Homo sapiens, UniProt O43704).
T1 construct: recombinant, purchased from BD Gentest
Kind of assay: inhibition of 4-nitrophenol sulfation, UPLC-UV. From the text: inhibition of 4-nitrophenol sulfation, UPLC-UV on SULT1B1

Assay [2] deals with T2, SULT1A1 (Homo sapiens, UniProt P50225).
T2 construct: recombinant, purchased from BD Gentest
Kind of assay: inhibition of 4-nitrophenol sulfation, UPLC-UV. From the text:
inhibition of 4-nitrophenol sulfation, UPLC-UV on SULT1A1

Assay [3] deals with T3, SULT1E1 (Homo sapiens, UniProt P49888).
T3 construct: recombinant, purchased from BD Gentest
T3 sequence (P49888 1-294): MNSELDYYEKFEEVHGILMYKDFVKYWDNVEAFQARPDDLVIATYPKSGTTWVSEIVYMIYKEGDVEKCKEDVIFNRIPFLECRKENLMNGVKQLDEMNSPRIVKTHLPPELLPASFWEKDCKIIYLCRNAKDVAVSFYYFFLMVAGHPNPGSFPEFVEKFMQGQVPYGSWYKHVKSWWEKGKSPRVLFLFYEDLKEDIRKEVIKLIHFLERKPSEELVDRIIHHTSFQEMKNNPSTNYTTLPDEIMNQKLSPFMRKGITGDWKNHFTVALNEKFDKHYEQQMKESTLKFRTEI
In words: inhibition of 4-nitrophenol sulfation, UPLC-UV. From the text: inhibition of 4-nitrophenol sulfation, UPLC-UV on SULT1E1

The target in assay [4] is T1, SULT1B1. Kind of assay: inhibition of 4-nitrophenol sulfation, UPLC-UV, Lineweaver-Burk slope replot.
In assay [5] the target is T3, SULT1E1. The assay is described as above.

T1 sequence (O43704 whole entry): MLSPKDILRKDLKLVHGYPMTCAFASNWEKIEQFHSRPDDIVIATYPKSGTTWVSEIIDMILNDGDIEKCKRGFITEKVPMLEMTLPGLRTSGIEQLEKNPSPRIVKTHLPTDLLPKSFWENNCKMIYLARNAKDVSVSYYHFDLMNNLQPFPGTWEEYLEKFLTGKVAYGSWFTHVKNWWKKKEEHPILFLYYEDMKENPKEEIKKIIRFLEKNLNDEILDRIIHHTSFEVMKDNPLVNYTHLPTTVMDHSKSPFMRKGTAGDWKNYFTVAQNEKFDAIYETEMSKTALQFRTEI
T2 sequence (P50225 whole entry): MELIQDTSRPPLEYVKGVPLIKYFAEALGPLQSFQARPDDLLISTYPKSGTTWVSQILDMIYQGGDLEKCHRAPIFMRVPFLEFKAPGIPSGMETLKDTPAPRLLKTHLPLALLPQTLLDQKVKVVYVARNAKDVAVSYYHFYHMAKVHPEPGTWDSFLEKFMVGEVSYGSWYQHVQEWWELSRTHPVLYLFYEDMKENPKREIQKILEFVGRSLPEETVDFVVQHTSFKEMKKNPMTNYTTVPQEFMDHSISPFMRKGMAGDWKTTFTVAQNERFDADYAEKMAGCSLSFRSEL

Regarding `CCCCOC(=O)c1ccccc1C(=O)O` [MBP], in assay [1], 8.49 µM corresponded to half-maximal inhibition (IC50).

In turn, `O=C(O)c1ccccc1C(=O)OCc1ccccc1` [MBZP] came in with an IC50 in assay [2] of 0.25 µM.

Regarding `O=C(O)c1ccccc1C(=O)OC1CCCCC1` [MCHP], half-maximal inhibition in assay [1] (IC50) was put at 12.8 µM.

As to `CCCCC(CC)COC(=O)c1ccccc1C(=O)O` (centres unmarked) [MEHP], the values for the IC50 in assay [2], in assay [1] and in assay [3] were 2.32 µM, 13.9 µM and 1.73 µM, respectively.

In the case of `CCCCCCOC(=O)c1ccccc1C(=O)O` [MHP], the IC50 in assay [2] came to 17.1 µM; in assay [1], 11.6 µM; in assay [3], 4.54 µM.

For the compound `CCCCCCCCOC(=O)c1ccccc1C(=O)O` [MOP], the Ki in assay [4] is 2.23 µM; in assay [5], 5.54 µM. For the same compound, the figures for the IC50 in assay [2], in assay [1] and in assay [3] were 5.61 µM, 2.73 µM and 1.77 µM, respectively.
